Results on two molecules are retold here after patent US6545051B1, “Antibacterial hydroxamic acid derivatives” (British Biotech Pharmaceuticals, Ltd., priority 1999, dated 2003).

Values after ≈ are worked out from the molar mass of the structure shown.

In series [1] the test system is Staphylococcus capitis (American Type Culture Collection number 35661). Nature of the series: Minimal inhibitory concentration (MIC) against Staphylococcus capitis. In kind it is cell-based. The note with it: 2×YT broth, 37° C., 18 hours, lowest drug concentration that inhibited visible growth. The procedure: Minimal inhibitory concentrations (MIC) of inhibitors against E. coli strain DH5α (Genotype; F-φ80dlacZΔM 15Δ(lacZYA-argF)U 169 deoR recA1 endA1 hsdR17(rk^−, mk^+)phoA supE44λ^−thi-1 gyrA96 relA1) obtained from GibcoBRL Life Technologies, or Staphylococcus capitis (American Type Culture Collection number 35661) were determined as follows. Stock solutions of each test compound were prepared by dissolution of the compound in dimethylsulfoxide at 10 mM. For the determination of the minimal inhibitory concentration, two fold serial dilutions were prepared in 2×YT broth (typtone 16 g/1, yeast extract 10 g/1, sodium chloride 5 g/1 obtained from BIO 101 Inc, 1070 Joshua Way, Vista, Calif. 92083, USA) to yield 0.05 ml compound-containing medium per well. Inocula were prepared from cultures grown overnight in 2×YT broth at 37° C. Cell densities were adjusted to absorbance at 660 nm (A660)=0.1; the optical density-standardized preparations were diluted 1:1000 in 2×YT broth; and each well inoculated with 0.05 ml of the diluted bacteria. Microtiter plates were incubated at 37° C. for 18 hours in a humidified incubator. The MIC (μM) was recorded as the lowest drug concentration that inhibited visible growth.

With `CCCCCC[C@H](CC(=O)NO)C(=O)N[C@@H](Cc1ccccc1)C(=O)OC(C)C`, in series [1], the MIC (in general, the least concentration at which growth counts as inhibited) worked out at 100 µM (≈ 40.7 µg/mL).
For `CCOC(=O)[C@@H](NC(=O)[C@H](CC(C)C)[C@H](C)C(=O)NO)C(C)(C)C` [Example 2], the melting point (in general, the temperature, or range, at which the solid turns liquid) lay within 198 to 203 °C.
